Square brackets hold non-standard residues; d marks the D form. Peptide text beside a SMILES is read from it. 2Nal = N[C@@H](Cc1ccc2ccccc2c1)C(=O)O; Cha = N[C@@H](CC1CCCCC1)C(=O)O; Aoc(2) = CCCCCC[C@H](N)C(=O)O; hLeu = CC(C)CC[C@H](N)C(=O)O; Nle = CCCC[C@H](N)C(=O)O; Dab = NCC[C@H](N)C(=O)O; Nva = CCC[C@H](N)C(=O)O
How the values were obtained:
Erythrocyte = assay: Hemolytic activity in human erythrocytes incubated for 1 hr by ELISA reader analysis; format: toxicity, cell-based
Escherichia coli = assay: Antimicrobial activity against Escherichia coli ATCC 25922 assessed as reduction in microbial growth measured after 24 hrs by CLSI based broth microdilution method; format: functional

| SMILES | HC10 (Erythrocyte) [µM] | MIC (Escherichia coli) [µM] |
| --- | --- | --- |
| CC[C@H](C)[C@H](NC(=O)[C@H](CCCNC(=N)N)NC(=O)[C@H](CCCCN)NC(=O)[C@H](CC(C)C)NC(=O)[C@H](CCC(C)C)NC(=O)CN)C(=O)N[C@@H](CCCCN)C(=O)N[C@H](C(=O)N[C@@H](CC(C)C)C(=O)N[C@@H](CCC(C)C)C(N)=O)[C@@H](C)O (H-G[hLeu]LKRIKTL[hLeu]-NH2) | 380 | 12.5 |
| CC[C@H](C)[C@H](NC(=O)[C@H](CCCNC(=N)N)NC(=O)[C@@H](NC(=O)[C@H](CC(C)C)NC(=O)[C@H](CC(C)C)NC(=O)CN)[C@@H](C)O)C(=O)N[C@@H](CCCCN)C(=O)N[C@H](C(=O)N[C@@H](CC(C)C)C(=O)N[C@@H](CC(C)C)C(N)=O)[C@@H](C)O (H-GLLTRIKTLL-NH2) | > 500 | 200 |
| CCC[C@H](NC(=O)[C@H](CC(C)C)NC(=O)CN)C(=O)N[C@@H](CCCCN)C(=O)N[C@@H](CCCNC(=N)N)C(=O)N[C@@H](Cc1ccc2ccccc2c1)C(=O)N[C@@H](CCCCN)C(=O)N[C@H](C(=O)N[C@@H](CCC)C(=O)N[C@@H](CC(C)C)C(N)=O)[C@@H](C)O (H-GL[Nva]KR[2Nal]KT[Nva]L-NH2) | > 500 | 100 |
| CCCC[C@H](NC(=O)[C@H](CCCC)NC(=O)[C@@H](NC(=O)[C@H](CCCCN)NC(=O)[C@@H](NC(=O)[C@H](CCCNC(=N)N)NC(=O)[C@H](CCCCN)NC(=O)[C@H](CCCC)NC(=O)[C@H](CCCC)NC(=O)CN)[C@@H](C)CC)[C@@H](C)O)C(N)=O (H-G[Nle][Nle]KRIKT[Nle][Nle]-NH2) | > 500 | 100 |
| CC[C@H](C)[C@H](NC(=O)[C@H](CCCNC(=N)N)NC(=O)[C@H](CCCCN)NC(=O)[C@H](CCC(C)C)NC(=O)[C@H](CCC(C)C)NC(=O)CN)C(=O)N[C@@H](CCCCN)C(=O)N[C@H](C(=O)N[C@@H](CCC(C)C)C(=O)N[C@@H](CCC(C)C)C(N)=O)[C@@H](C)O (H-G[hLeu][hLeu]KRIKT[hLeu][hLeu]-NH2) | 125 | 12.5 |
| CC[C@H](C)[C@H](NC(=O)[C@H](CCCNC(=N)N)NC(=O)[C@H](CCCCN)NC(=O)[C@H](CC(C)C)NC(=O)[C@H](COC)NC(=O)CN)C(=O)N[C@@H](CCCCN)C(=O)N[C@H](C(=O)N[C@@H](CC(C)C)C(=O)N[C@@H](CC(C)C)C(N)=O)[C@@H](C)O (H-GS(Me)LKRIKTLL-NH2) | > 500 | > 200 |
| CCCCCC[C@H](NC(=O)[C@H](CCCCCC)NC(=O)[C@@H](NC(=O)[C@H](CCCCN)NC(=O)[C@@H](NC(=O)[C@H](CCCNC(=N)N)NC(=O)[C@H](CCCCN)NC(=O)[C@H](CCCCCC)NC(=O)[C@H](CCCCCC)NC(=O)CN)[C@@H](C)CC)[C@@H](C)O)C(N)=O (H-G[Aoc(2)][Aoc(2)]KRIKT[Aoc(2)][Aoc(2)]-NH2) | 20 |  |
| CCC[C@H](NC(=O)[C@H](CCC)NC(=O)[C@@H](NC(=O)[C@H](CCCCN)NC(=O)[C@@H](NC(=O)[C@H](CCCNC(=N)N)NC(=O)[C@H](CCCCN)NC(=O)[C@H](CCC)NC(=O)[C@H](CCC)NC(=O)CN)[C@@H](C)CC)[C@@H](C)O)C(N)=O (H-G[Nva][Nva]KRIKT[Nva][Nva]-NH2) | > 500 | > 200 |
| CC[C@H](C)[C@H](NC(=O)[C@H](CCCNC(=N)N)NC(=O)[C@H](CCCCN)NC(=O)[C@H](CC(C)C)NC(=O)[C@H](CC1CCCCC1)NC(=O)CN)C(=O)N[C@@H](CCCCN)C(=O)N[C@H](C(=O)N[C@@H](CC1CCCCC1)C(=O)N[C@@H](CC(C)C)C(N)=O)[C@@H](C)O (H-G[Cha]LKRIKT[Cha]L-NH2) | 120 | 12.5 |
| CC[C@H](C)[C@H](NC(=O)[C@H](CCCNC(=N)N)NC(=O)[C@H](CCN)NC(=O)[C@H](CC(C)C)NC(=O)[C@H](CC(C)C)NC(=O)CN)C(=O)N[C@@H](CCCCN)C(=O)N[C@H](C(=O)N[C@@H](CC(C)C)C(=O)N[C@@H](CC(C)C)C(N)=O)[C@@H](C)O (H-GLL[Dab]RIKTLL-NH2) | > 500 | 75 |
